In patent US20190142949A1, “COVALENT CONJUGATES” (GLAXOSMITHKLINE INTELLECTUAL PROPERTY DEVELOPMENT LIMITED, priority 2015, published 2019):

Legend:
[1] = target: T1, Bromodomain BRD4 Binding Domain 1 (BD1) [BRD4 (Y390A)] (Homo sapiens, UniProt O60885, Y390A); experiment: TR-FRET binding assay, Bromodomain BRD4 BD1 mutant assay; conditions: for IC50: TR-FRET, BRD4 (Y390A) 10 nM, Alexa Fluor647 ligand at Kd, read-out: pIC50 in the BRD4 BD1 assay (converted)
T1 construct: made in house; host or cells: E. coli (pET15b vector)
Method: Binding was assessed using a time resolved fluorescent resonance energy transfer binding assay. This utilises a 6 His purification tag at the N-terminal of the proteins as an epitope for an anti-6 His antibody labeled with Europium chelate (PerkinElmer AD0111) allowing binding of the Europium to the proteins which acts as the donor fluorophore. A small molecule, high affinity binder of the bromodomain BRD4 has been labeled with Alexa Fluor647 (Reference Compound X) and this acts as the acceptor in the FRET pair.
In the absence of a competing compound, excitation of the Europium causes the donor to emit at λ618 nm which excites the Alexa labelled bromodomain binding compound leading to an increased energy transfer that is measurable at λ647 nM. In the presence of a sufficient concentration of a compound that can bind these proteins, the interaction is disrupted leading to a quantifiable drop in fluorescent resonance energy transfer.
The binding of Examples 1 to 11 to Bromodomain BRD4 was assessed using mutated proteins to detect differential binding to Binding Domain 1 (BD1) on the bromodomain. These single residue mutations in the acetyl lysine binding pocket greatly lower the affinity of the fluoroligand (Reference Compound X) for the mutated domain (>1000 fold selective for the non-mutated domain). Therefore in the final assay conditions, binding of the fluoroligand to the mutated domain cannot be detected and subsequently the assay is suitable to determine the binding of compounds to the single non-mutated bromodomain.
Recombinant Human Bromodomain [BRD4 (Y390A)] was expressed in E colicells (pET15b vector) with a 6-His tag at the N-terminal. […]
All assay components were dissolved in buffer composition of 50 mM HEPES pH7.4, 50 mM NaCl, 5% Glycerol, 1 mM DTT and 1 mM CHAPS. […] Plates were then read on the Envision platereader, (λex=317 nm, donor λem=615 nm; acceptor λem=665 nm; Dichroic LANCE dual). Time resolved fluorescent intensity measurements were made at both emission wavelengths and the ratio of acceptor/donor was calculated and used for data analysis. […]

[2] = test system: LPS induced MCP-1 production from human whole blood; experiment: LPS induced MCP-1 production from human whole blood; type: cell-based; conditions: LPS 200 ng/mL, 18-24 hours, read-out: pIC50, LPS induced MCP-1 production (converted)
Method: Activation of monocytic cells by agonists of toll-like receptors such as bacterial lipopolysaccharide (LPS) results in production of key inflammatory mediators including MCP-1. Such pathways are widely considered to be central to the pathophysiology of a range of auto-immune and inflammatory disorders. Blood is collected in a tube containing Sodium heparin (Leo Pharmaceuticals) (10 units of heparin/mL of blood). 96-well compound plates containing 1 μL test sample in 100% DMSO were prepared (two replicates on account of donor variability). 130 μL of whole blood was dispensed into each well of the 96-well compound plates and incubated for 30 min at 37° C., 5% CO2. 10 μL of lipopolysaccharide (from Salmonella typhosa; L6386) made up in PBS (200 ng/mL final assay concentration) was added to each well of the compound plates. The plates were then placed in the humidified primary cell incubator for 18-24 hours at 37° C., 5% CO2. 140 μL of PBS was added to all wells of the compound plates containing blood. The plates were then sealed and centrifuged for 10 mins at 2500 rpm. […] 150 μL of 2×MSD Read Buffer T (stock 4×MSD Read Buffer T was diluted 50:50 with de-ionised water) was then added to each well and the plates read on the MSD Sector Imager 6000. Concentration response curves for each compound were generated from the data and an IC50 value was calculated.

Row | IC50 [1] [µM] | IC50 [2] [µM] | SMILES | selectivity of the fluoroligand for the non-mutated domain over the mutated domain ([1]; single residue mutations in the acetyl lysine binding pocket) [fold]
1 | 0.398 | 2.51 | Cc1cc(-c2nc3ccccc3n2CC2CCOCC2)c[nH]c1=O [Example 10, 3-methyl-5-(1-((tetrahydro-2H-pyran-4-yl)methyl)-1H-benzo[d]imidazol-2-yl)pyridin-2(1H)-one] | 
2 | 0.794 | 0.0794 | Cc1cc(-c2nc3cc(CN[C@@H](CC(C)C)C(=O)OC4CCCC4)ccc3n2CC2CCOCC2)c[nH]c1=O [Example 3, (S)-cyclopentyl 4-methyl-2-(((2-(5-methyl-6-oxo-1,6-dihydropyridin-3-yl)-1-((tetrahydro-2H-pyran-4-yl)methyl)-1H-benzo[d]imidazol-5-yl)methyl)amino)pentanoate] | 
3 |  |  | COc1ccc2c(c1)C(c1ccc(Cl)cc1)=N[C@@H](CC(=O)NCCCCCNC(=O)CCCCCC1(C)/C(=C/C=C/C=C/C3=[N+](CCCCS(=O)(=O)O)c4ccc(S(=O)(=O)O)cc4C3(C)C)N(CCCCS(=O)(=O)[O-])c3ccc(S(=O)(=O)O)cc31)c1nnc(C)n1-2 (some centres unmarked) [Reference Compound X, reference compound] | > 1000
